Assay results reported in ChEMBL document CHEMBL1201862, “PubChem BioAssay data set” (2004).
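Protocol summary: plate cells (96-well), add compound at 5 concentrations, incubate 48 h, interpolate endpoints linearly. Abbreviation: GI50, concentration required for 50% inhibition of growth.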 The source made the active and inactive calls. No stated cut-off is given here; in the data, active = GI50 up to about 1.1 µM and inactive = higher.

Tests used:
Assay in all cases: NCI tumour cell line growth inhibition, 48 h
[1] = tested on: DU-145
[2] = tested on: ACHN
[3] = tested on: RPMI-8226
[4] = tested on: CAKI-1
[5] = tested on: SN12C
[6] = tested on: MDA-N
[7] = tested on: HOP-92
[8] = tested on: SNB-19
[9] = tested on: TK-10
[10] = tested on: HCT-15
[11] = tested on: SF-295
[12] = tested on: OVCAR-3
[13] = tested on: IGROV-1
[14] = tested on: SR
[15] = tested on: SW-620
[16] = tested on: MDA-MB-435
[17] = tested on: PC-3
[18] = tested on: UACC-62
[19] = tested on: NCI-H522
[20] = tested on: SNB-75

Structure (SMILES)	GI50 [1]	GI50 [2]	GI50 [3]	GI50 [4]	GI50 [5]	GI50 [6]	GI50 [7]	GI50 [8]	GI50 [9]	GI50 [10] [µM]	GI50 [11]	GI50 [12]	GI50 [13]	GI50 [14]	GI50 [15]	GI50 [16]	GI50 [17]	GI50 [18]	GI50 [19]	GI50 [20]
N/C(=N\OC(=O)NC(Cl)=C(Cl)Cl)c1cc(C(F)(F)F)cc(C(F)(F)F)c1	13.2 µM (inactive)	14 µM (inactive)	12.5 µM (inactive)	16.7 µM (inactive)	24.3 µM (inactive)	21.5 µM (inactive)	14.8 µM (inactive)	18.7 µM (inactive)	16.5 µM (inactive)	17.3	17.5 µM (inactive)	14.8 µM (inactive)	25.8 µM (inactive)	10.7 µM (inactive)	18.9 µM (inactive)	19.4 µM (inactive)	17.5 µM (inactive)			
O=[N+]([O-])c1ccc(N2N=C(c3ccc4ccccc4c3O)CC2c2ccc(Cl)cc2)c([N+](=O)[O-])c1 (centres undefined)	48.8 µM (inactive)	37.2 µM (inactive)	12.8 µM (inactive)	> 100 µM (inactive)	33.2 µM (inactive)	16.7 µM (inactive)	33 µM (inactive)		53.1 µM (inactive)	30.3	34.7 µM (inactive)	24.8 µM (inactive)	21.5 µM (inactive)	18.2 µM (inactive)	29.9 µM (inactive)	16.9 µM (inactive)	23.8 µM (inactive)	> 100 µM (inactive)	22.1 µM (inactive)	73.5 µM (inactive)
Cc1c2cccc-2c(N(C)C)cc2c1[nH]c1ccccc12	14.6 µM (inactive)	3.19 µM (inactive)	2.07 µM (inactive)	17.5 µM (inactive)	6.67 µM (inactive)	6.56 µM (inactive)	0.561 µM (active)	9.27 µM (inactive)	4.63 µM (inactive)	3.12	10.4 µM (inactive)	4.32 µM (inactive)	1.89 µM (inactive)	1.58 µM (inactive)	4.17 µM (inactive)	8.36 µM (inactive)	1.42 µM (inactive)			
Cn1c(-c2cccs2)cc(-c2cccs2)c1-c1ccsc1	> 100 µM (inactive)	> 100 µM (inactive)	> 100 µM (inactive)	> 100 µM (inactive)	> 100 µM (inactive)	> 100 µM (inactive)	> 100 µM (inactive)	70.3 µM (inactive)	> 100 µM (inactive)	32.9	> 100 µM (inactive)	12.4 µM (inactive)		48.2 µM (inactive)	> 100 µM (inactive)	> 100 µM (inactive)	> 100 µM (inactive)	> 100 µM (inactive)		> 100 µM (inactive)
COC1(OC)c2no[n+]([O-])c2C(OC)(OC)c2c1no[n+]2[O-]	28.3 µM (inactive)	19.5 µM (inactive)	35.6 µM (inactive)	37.8 µM (inactive)	20.4 µM (inactive)	19.6 µM (inactive)		24.5 µM (inactive)	16.1 µM (inactive)	22	35.7 µM (inactive)	7.85 µM (inactive)	21.7 µM (inactive)	4.38 µM (inactive)	17.9 µM (inactive)	17.3 µM (inactive)	25.3 µM (inactive)	11.2 µM (inactive)	21.7 µM (inactive)	18.3 µM (inactive)
N#C/C(=C\c1ccc(F)cc1)c1nc2ccccc2c(=O)[nH]1	> 100 µM (inactive)	> 100 µM (inactive)	> 100 µM (inactive)	> 100 µM (inactive)	> 100 µM (inactive)	> 100 µM (inactive)	82.2 µM (inactive)	> 100 µM (inactive)	> 100 µM (inactive)	> 100	> 100 µM (inactive)		> 100 µM (inactive)	> 100 µM (inactive)	> 100 µM (inactive)	> 100 µM (inactive)	> 100 µM (inactive)	> 100 µM (inactive)	> 100 µM (inactive)	25.9 µM (inactive)
Cc1ccc(S(=O)(=O)N2CCN3C(=O)c4ccccc4C32c2ccc(F)cc2)cc1 (centres undefined)	78.7 µM (inactive)	95.1 µM (inactive)	23.8 µM (inactive)	57.3 µM (inactive)	32.7 µM (inactive)	27.5 µM (inactive)		> 100 µM (inactive)	> 100 µM (inactive)	80.9	85.7 µM (inactive)	> 100 µM (inactive)	22.9 µM (inactive)	16.9 µM (inactive)	87.9 µM (inactive)	32.8 µM (inactive)	32 µM (inactive)	44.9 µM (inactive)	55.8 µM (inactive)	72.1 µM (inactive)
C/C(C=O)=C/[C@@]1(C)O[C@@H](C)[C@@](C)(O)[C@@H]1O	78.9 µM (inactive)	24.5 µM (inactive)	30.9 µM (inactive)	19.9 µM (inactive)	32.5 µM (inactive)	44.3 µM (inactive)	37.2 µM (inactive)	61.1 µM (inactive)	77.6 µM (inactive)	22.2	41.1 µM (inactive)	49.1 µM (inactive)	> 100 µM (inactive)	2.58 µM (inactive)	87.3 µM (inactive)	31 µM (inactive)	47.5 µM (inactive)	43.7 µM (inactive)	19 µM (inactive)	
[N-]=[N+]=CC(=O)CCC(=O)N(c1ccccc1)c1ccccc1	> 10 µM (inactive)	> 10 µM (inactive)			> 10 µM (inactive)	> 10 µM (inactive)	> 10 µM (inactive)	> 10 µM (inactive)	> 10 µM (inactive)	> 10	> 10 µM (inactive)	> 10 µM (inactive)	> 10 µM (inactive)	> 10 µM (inactive)	> 10 µM (inactive)	> 10 µM (inactive)	> 10 µM (inactive)			> 10 µM (inactive)
Cc1cc(S(=O)(=O)Nc2nc(N)n(-c3cnc4ccccc4n3)n2)c(S)cc1Cl	> 100 µM (inactive)	> 100 µM (inactive)		95.3 µM (inactive)	> 100 µM (inactive)	> 100 µM (inactive)	16.6 µM (inactive)	39.1 µM (inactive)	> 100 µM (inactive)	> 100		> 100 µM (inactive)	> 100 µM (inactive)	> 10 µM (inactive)	> 100 µM (inactive)	> 100 µM (inactive)	> 100 µM (inactive)	49.7 µM (inactive)	> 100 µM (inactive)	22.7 µM (inactive)
COC(=O)c1c2c(cc3c1CC1(Cc4cc5c(cc4C1)CCC5)C3)CCC2	> 100 µM (inactive)	> 100 µM (inactive)	> 100 µM (inactive)	> 100 µM (inactive)		> 100 µM (inactive)	> 100 µM (inactive)	> 100 µM (inactive)	> 100 µM (inactive)	> 100	> 100 µM (inactive)	> 100 µM (inactive)	> 100 µM (inactive)	> 100 µM (inactive)	> 100 µM (inactive)	77.4 µM (inactive)	> 100 µM (inactive)		> 100 µM (inactive)	> 100 µM (inactive)
O=C(CCCN1CCC2(CC1)CC(=O)N(N1CCOCC1)C2=O)c1ccccc1	> 100 µM (inactive)	> 100 µM (inactive)	> 100 µM (inactive)	> 100 µM (inactive)	> 100 µM (inactive)	> 100 µM (inactive)		> 100 µM (inactive)	> 100 µM (inactive)	> 100	> 100 µM (inactive)	> 100 µM (inactive)	> 100 µM (inactive)	> 100 µM (inactive)	> 100 µM (inactive)	19.1 µM (inactive)	> 100 µM (inactive)	> 100 µM (inactive)	> 100 µM (inactive)	> 100 µM (inactive)
Cc1ccc(/C=C2\N=C(N3CCCCC3)NC2=O)cc1	> 100 µM (inactive)	> 100 µM (inactive)	60.8 µM (inactive)	> 100 µM (inactive)	> 100 µM (inactive)	> 100 µM (inactive)	> 100 µM (inactive)	> 100 µM (inactive)	> 100 µM (inactive)	> 100	> 100 µM (inactive)	> 100 µM (inactive)		> 100 µM (inactive)	> 100 µM (inactive)	> 100 µM (inactive)	> 100 µM (inactive)	> 100 µM (inactive)	74.5 µM (inactive)	
O=C1/C(=C/c2ccccc2)N=C(c2ccccc2)N1n1c(-c2ccccc2)nc2ccccc2c1=O	83 µM (inactive)	89.1 µM (inactive)	28.8 µM (inactive)		> 100 µM (inactive)	54.8 µM (inactive)	97.5 µM (inactive)	52.8 µM (inactive)	> 100 µM (inactive)	72.4	91 µM (inactive)	57.9 µM (inactive)	> 100 µM (inactive)	31 µM (inactive)	> 100 µM (inactive)	87.9 µM (inactive)	57.7 µM (inactive)	31 µM (inactive)	46.6 µM (inactive)	> 100 µM (inactive)
O=C(Nc1nc(C23CC4CC(CC(C4)C2)C3)cs1)c1cc2cc(Cl)ccc2oc1=O	> 100 µM (inactive)	> 100 µM (inactive)	> 100 µM (inactive)	> 100 µM (inactive)	> 100 µM (inactive)	> 100 µM (inactive)	> 100 µM (inactive)	> 100 µM (inactive)	> 100 µM (inactive)	> 100	> 100 µM (inactive)	> 100 µM (inactive)	> 100 µM (inactive)	> 100 µM (inactive)	> 100 µM (inactive)	> 100 µM (inactive)	> 100 µM (inactive)		> 100 µM (inactive)	> 100 µM (inactive)
